Reference: US7718670B2 (dated 2010)

Structure (SMILES)	melting point [°C]
O=C(N[C@H]1CN2CCC1CC2)C(Cc1ccccc1)c1ccccc1 (stereo partly shown)	142
CCCCC(C(=O)N[C@H]1CN2CCC1CC2)c1ccccc1 (stereo partly shown)	136
C[N+]12CCC(CC1)C(NC(=O)C1c3ccccc3Oc3ccccc31)C2.[Br-] (stereo not shown)	318
O=C(NC1C[N+]2(CCCOc3ccccc3)CCC1CC2)C1(O)c2ccccc2-c2ccccc21.[Br-] (stereo not shown)	264
C[N+]12CCC(CC1)C(NC(=O)C1(O)c3ccccc3-c3ccccc31)C2.[Br-] (stereo not shown)	197.5 to 203.6
O=C(N[C@H]1CN2CCC1CC2)C(O)(c1ccccc1)C1CCCC1 (stereo partly shown)	69.8 to 73.3
C=CCC(O)(C(=O)N[C@H]1CN2CCC1CC2)c1cccs1 (stereo partly shown)	54.4 to 58.3
